# Where “and” joins values, the source holds several entries; their conditions need not be identical. Equal values may be shown once.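 Cells were grown in 96-well plates and exposed to each compound for 48 hours at five concentrations; endpoints were interpolated linearly between bracketing concentrations, or set to the highest concentration if not reached. GI50 marks 50% less growth. TGI denotes the concentration required for complete inhibition of growth.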
# Columns and labels:
# Test in all cases: NCI tumour cell line growth inhibition, 48 h
# KM20L2 colon = tested on: KM20L2 colon
# LXFL 529 NSCLC = tested on: LXFL 529 NSCLC
# M19-MEL melanoma = tested on: M19-MEL melanoma
# MDA-N = tested on: MDA-N
# RXF-631 renal = tested on: RXF-631 renal
# SNB-78 CNS = tested on: SNB-78 CNS
# XF 498 CNS = tested on: XF 498 CNS
# DLD-1 colon = tested on: DLD-1 colon
# HOP-18 NSCLC = tested on: HOP-18 NSCLC
# P388 leukemia = tested on: P388 leukemia
# P388/ADR leukemia = tested on: P388/ADR leukemia
Compound,TGI (KM20L2 colon),TGI (LXFL 529 NSCLC),TGI (M19-MEL melanoma),TGI (MDA-N),TGI (RXF-631 renal),TGI (SNB-78 CNS),TGI (XF 498 CNS),TGI (DLD-1 colon),TGI (HOP-18 NSCLC),further results
Cc1c(Cl)ccc2c1NC(=O)C2(O)CC(=O)c1ccc(Cl)cc1Cl (stereo not drawn),> 50 µM,> 50 µM,> 50 µM,> 50 µM,> 50 µM,> 50 µM,> 50 µM,,,
COc1cc(OC)c(-c2cc(=O)c3c(OC)c(OC)c(OC)c(OC)c3o2)cc1OC,,,,> 100 µM,,,,,,
O=c1cc2n(c(=O)[nH]1)C1OC(C(O)C1O)[C@@H]2CCO (stereo partly drawn),> 100 µM,> 100 µM,> 100 µM,,,> 100 µM,,> 100 µM,,
O=C(NC1CCCCC1)c1c(O)[nH]c(=S)[nH]c1=O,> 100 µM,> 100 µM,> 100 µM,,> 100 µM,> 100 µM,,> 100 µM,> 100 µM,
CC(=O)[CH-]C(=O)c1ccccc1.CC(=O)[CH-]C(=O)c1ccccc1.[Nd+3].[OH-].[OH3+],> 100 µM,> 100 µM,> 100 µM,,,,,> 100 µM,> 100 µM,GI50 (DLD-1 colon): > 100 µM; GI50 (HOP-18 NSCLC): > 100 µM; GI50 (KM20L2 colon): > 100 µM; GI50 (LXFL 529 NSCLC): > 100 µM; GI50 (M19-MEL melanoma): > 100 µM
[Cu+2].[Cu+2].[O-]c1ccccc1C=Nc1ccccc1[O-].[O-]c1ccccc1C=Nc1ccccc1[O-],28 µM,9.48 µM,3.69 µM,,,36.4 µM,7.16 µM,16.6 µM,16.6 µM,GI50 (DLD-1 colon): 3.95 µM; GI50 (HOP-18 NSCLC): 2.99 µM; GI50 (KM20L2 colon): 8.16 µM; GI50 (LXFL 529 NSCLC): 3.02 µM; GI50 (M19-MEL melanoma): 1.86 µM; GI50 (SNB-78 CNS): 13.5 µM; GI50 (XF 498 CNS): 2.67 µM
CCCCN(CC)C(=O)C(=O)C1C(=O)Nc2ccccc2S1=O (stereo not drawn),> 100 µM,> 100 µM,> 100 µM,,,> 100 µM,,> 100 µM,> 100 µM,
CC1=CC[C@@H]2[C@@H](CC[C@@]2(C)O)C(C)(C)[C@H]1CC[C@@H]1[C@@]2(C)CCC(=O)C(C)(C)O[C@@H]2CC[C@]1(C)O,,,,57 µM,,,,,,
COc1nc(OC)c2c(=O)oc(-c3ccccc3)cc2n1,> 100 µM,> 100 µM,> 100 µM,,,> 100 µM,,,,
COc1cc2c(cc1OC)C13CCN4CC5=CCOC(CC(=O)O)C(C5CC41)C3N2 (stereo not drawn),,,,> 100 µM,,,,,,
CCc1nc2c(O)ccc(O)c2nc1C,34 µM,15.8 µM,19.4 µM,,34.3 µM,62.6 µM,39.4 µM,9.35 µM,35.3 µM,
O=C(O)CSc1n[nH]c(/C=C/c2ccccc2)n1,> 100 µM,> 100 µM,> 100 µM,,,> 100 µM,> 100 µM,> 100 µM,> 100 µM,
COC(=O)N1[C@H]2Cc3c(OC)c(C)c(OC)c(OC)c3[C@@H]1/C(=C\c1cc(OC)c(OC)c(C)c1OC)N(Cc1ccccc1)C2=O,> 100 µM,> 100 µM,60 µM,,,,,> 100 µM,> 100 µM,
COC(=O)c1cnc2nc(N3CCOCC3)[nH]n2c1=O,> 100 µM,,> 100 µM,,,> 100 µM,,,,
C=C1C(=O)O[C@@H]2C[C@]3(C)[C@@H](C[C@H]12)[C@](C)(O)CC[C@@H]3O,> 100 µM,> 100 µM,> 100 µM,,> 100 µM,> 100 µM,> 100 µM,> 100 µM,,
CC(NC(=O)c1ccccc1)C(=O)N(Cc1ccccc1)Cc1ccccc1 (stereo not drawn),90.4 µM,53.4 µM,67.7 µM,,,96.6 µM,,> 100 µM,,
O=C(NO)c1ccc(C(=O)NO)cc1,,,,> 100 µM,,,,,,
Cc1c(/C=C2\CC/C(=C\c3[nH]c(C(=O)OC(C)(C)C)c(C)c3C)C2=O)[nH]c(C(=O)OC(C)(C)C)c1C,> 100 µM,> 100 µM,> 100 µM,,,> 100 µM,> 100 µM,> 100 µM,> 100 µM,
COc1ccc(CNc2cc(OC)cc(OC)c2)cc1,> 100 µM,> 100 µM,> 100 µM,,,87.7 µM and 86.6 µM,> 100 µM,> 100 µM,> 100 µM,GI50 (DLD-1 colon): 97.7 µM and 42.6 µM; GI50 (HOP-18 NSCLC): > 100 µM; GI50 (KM20L2 colon): > 100 µM and 49 µM
COC(=O)OCC1OC(N2C(=O)NC(=O)C(I)C2N=[N+]=[N-])CC1OC(=O)OC (stereo not drawn),> 100 µM,> 100 µM,> 100 µM,,> 100 µM,> 100 µM,> 100 µM,> 100 µM,,
CC(=O)O[C@]1(C(C)=O)CC[C@H]2[C@@H]3C[C@H](C)C4=CC(=O)C=C[C@]4(C)[C@@]3(F)[C@@H](O)C[C@@]21C,> 100 µM,,> 100 µM,,,> 100 µM,> 100 µM,> 100 µM,,

Compound,TGI (KM20L2 colon),TGI (LXFL 529 NSCLC),TGI (M19-MEL melanoma),TGI (MDA-N),TGI (RXF-631 renal),TGI (SNB-78 CNS),TGI (XF 498 CNS),TGI (DLD-1 colon),TGI (HOP-18 NSCLC),further results
CCCCCCC1CCC2CCCC(C)N12 (stereo not drawn),> 100 µM,> 10 µM,> 100 µM,,,,36.1 µM,,> 100 µM,
Cc1c(Cl)cccc1NC(=O)CC1Sc2ccccc2NC1=O (stereo not drawn),> 85.9 µM and 55 µM,> 100 µM,> 100 µM,8.28 µM,> 100 µM and 57.5 µM,99 µM and > 100 µM,68.9 µM and 50.2 µM,> 100 µM,32.7 µM and 31.5 µM,GI50 (RXF-631 renal): 44.5 µM and 21 µM
CCCCOC1CC2(c3ccc(OC)cc3)C(=O)c3ccccc3N2O1 (stereo not drawn),> 10 µM,,> 10 µM,,> 10 µM,> 10 µM,> 10 µM,,,
O=S(=O)(c1cccc(C(F)(F)F)c1)N1c2ccccc2-n2cccc2C1c1cccnc1 (stereo not drawn),,,,> 100 µM,,,,,,
COc1ccccc1-c1cc2c3c(nc4ccccc42)C(=O)c2cccnc2-c3n1,,,,28.5 µM,,,,,,GI50 (MDA-N): 14.9 µM
OCC(O)CC[CH2][Sn]([c]1ccccc1)([c]1ccccc1)[c]1ccccc1 (stereo not drawn),34.7 µM,24.9 µM,31.1 µM,,28.7 µM,41.3 µM,35.9 µM,32 µM,39.7 µM,GI50 (DLD-1 colon): 16.5 µM; GI50 (HOP-18 NSCLC): 24.9 µM; GI50 (KM20L2 colon): 19.4 µM; GI50 (LXFL 529 NSCLC): 12.3 µM; GI50 (M19-MEL melanoma): 17.1 µM; GI50 (RXF-631 renal): 13.6 µM; GI50 (SNB-78 CNS): 19.6 µM; GI50 (XF 498 CNS): 19.5 µM
CC1OCC2OC(C)OC(C3C4=C(CC(C)(C)CC4=O)OC4=C3C(=O)CC(C)(C)C4)C2O1 (stereo not drawn),,,,> 100 µM,,,,,,
O=c1/c(=C/c2cccc3ccccc23)sc2nc3ccccc3n12,> 100 µM,> 100 µM,> 100 µM,,> 100 µM,> 100 µM,,> 100 µM,> 100 µM,
CCOC(C)OCC#CCCBr (stereo not drawn),> 100 µM,> 100 µM,> 100 µM,,,> 100 µM,,> 100 µM,> 100 µM,
CC(C)C1CN1CC(O)Cn1ccnc1[N+](=O)[O-] (stereo not drawn),,,,> 100 µM,,,,,,
CC(C)(C)c1nc2c(o1)C(=Nc1ccccc1)c1ccccc1C2=O,85.8 µM,50.1 µM,2.32 µM,,51.9 µM,43.7 µM,9.66 µM,38.1 µM,20.9 µM,
COc1ccc(OC)c(/C=C/[N+](=O)[O-])c1,9.34 µM,4.83 µM,5.96 µM,25.3 µM,10.3 µM,58.8 µM,7.02 µM,8.65 µM,3.85 µM,
COC1/C=C/O[C@@]2(C)Oc3c(C)c(O)c4c(O)c(cc(O)c4c3C2=O)NC(=O)/C(C)=C\C=C\[C@H](C)C(O)[C@@H](C)[C@@H](O)[C@@H](C)[C@H](OC(C)=O)[C@@H]1C (stereo partly drawn),30.5 µM,,26.1 µM,39.9 µM and 27.8 µM,,95 µM,29.3 µM,30.4 µM,38.8 µM,GI50 (MDA-N): 19.2 µM; TGI (P388 leukemia): 31.2 µM; TGI (P388/ADR leukemia): 59 µM
O=C(/C=C/c1ccc(OCCCCCCCCCCOc2ccc(/C=C/C(=O)c3ccc(Cl)cc3)cc2)cc1)c1ccc(Cl)cc1,> 100 µM,,,,> 100 µM,> 100 µM,,> 100 µM,> 100 µM,
CS(=O)(=O)C1S(=O)(=O)OCCOS1(=O)=O,> 100 µM,> 100 µM,> 100 µM,,> 100 µM,> 100 µM,> 100 µM,> 100 µM,> 100 µM,
O=[N+]([O-])c1ccccc1S(=O)c1ccccc1 (stereo not drawn),,> 100 µM,> 100 µM,,,> 100 µM,> 100 µM,> 100 µM,,
COc1cc(OC)cc(N2CCC(c3c(N)nc(N)nc3Cl)CC2)c1,> 100 µM,> 100 µM,> 100 µM,,> 100 µM,> 100 µM,> 100 µM,> 100 µM,,
O=C(Cn1ccnc1[N+](=O)[O-])N(CCO)CCO,> 1250 µM,,> 1250 µM,> 250 µM,,> 1250 µM,> 58 µM,> 1250 µM,> 1250 µM,TGI (P388 leukemia): > 1250 µM; TGI (P388/ADR leukemia): > 1250 µM
O=CC1=CCCC2(C1)OCCO2,,> 100 µM,> 100 µM,,> 100 µM,> 100 µM,> 100 µM,> 100 µM,,
COc1ccc(CC(=O)c2cc(OC)c(OC)cc2C)cc1OC,> 100 µM,> 100 µM,> 100 µM,,,> 100 µM,> 100 µM,> 100 µM,,
